Values quoted from earlier work as cited in patent publication US12109298B2, “Improving the fastness to washing of pigment-containing dyes by using an oxidative pretreatment agent” (Henkel AG & Co. KGaA, priority 2020, dated 2024).
Like-named read-outs stand apart in the source and are kept apart here.

How the values were obtained:
[1] = 25° C.
[2] = 5% solution in water

Row | Structure (SMILES) | solubility in water [1] | further results
1 | CCN(Cc1cccc(S(=O)(=O)[O-])c1)c1ccc(C(=C2C=CC(=[N+](CC)Cc3cccc(S(=O)(=O)[O-])c3)C=C2)c2ccccc2S(=O)(=O)[O-])cc1.[Na+].[Na+] [Acid Blue 9] | more than 20 wt. % | –
2 | O=S(=O)([O-])c1ccc(N=Nc2c(O)ccc3ccccc23)cc1.[Na+] [Acid Orange 7, sodium salt of 4-[(2-hydroxy-1-naphthyl)azo]benzene sulfonate] | more than 7 g/L | –
3 | Nc1cc(S(=O)(=O)[O-])cc2cc(S(=O)(=O)[O-])c(N=Nc3ccccc3)c(O)c12.[Na+].[Na+] [Acid Red 33, diantrium salt of 5-amino-4-hydroxy-3-(phenylazo)-naphthalene-2,7-disulphonate] | 2500 µg/mL | –
4 | O=C([O-])c1c(Cl)c(Cl)c(Cl)c(Cl)c1-c1c2c(Br)cc(=O)c(Br)c-2oc2c(Br)c(O)cc(Br)c12.O=C([O-])c1c(Cl)c(Cl)c(Cl)c(Cl)c1-c1c2c(Br)cc(=O)c(Br)c-2oc2c(Br)c(O)cc(Br)c12.[Na+].[Na+] [Acid Red 92, disodium salt of 3,4,5,6-tetrachloro-2-(1,4,5,8-tetrabromo-6-hydroxy-3-oxoxanthen-9-yl)benzoic acid] | greater than 10 g/L | –
5 | O=C([O-])C1=NN(c2ccc(S(=O)(=O)[O-])cc2)C(=O)C1N=Nc1ccc(S(=O)(=O)[O-])cc1.[Na+].[Na+].[Na+] (stereo not drawn) [Acid Yellow 23, trisodium salt of 4,5-dihydro-5-oxo-1-(4-sulfophenyl)-4-((4-sulfophenyl)azo)-1H-pyrazole-3-carboxylic acid] | – | solubility in water ([1]; in words): readily soluble in water
6 | O=P([O-])(O)O.[K+] [Potassium dihydrogen phosphate] | – | pH value [2]: 4.4
